Reference: the NIST ThermoML archive (doi:10.1016/j.fluid.2017.10.025)
± gives the expanded uncertainty stated by the source.

What was measured:
[1] = refractive index (Na D-line) (dimensionless); conditions: 298.15 K; 101.33 kPa; Liquid; 2AWJ refractometer
[2] = 293.15 K; 101.33 kPa; Liquid; buoyancy

SMILES | refractive index [1] | mass density [2] [kg/m3]
C=CCO [2-propenol] | 1.4129 ± 0.0003 | 855 ± 0.7
O [water] | 1.3327 ± 0.0002 | 998.3 ± 0.6
